Test results taken from patent US11684614B2, “Formulations of hydroxypyridonate actinide/lanthanide decorporation agents” (priority 2017, dated 2023).
Several values for one entry are separate records, joined by “and”; a condition that tells them apart may be missing. Equal values may be shown once.

Experiment: Repeated-treatment efficacy for removing an intravenous dose of 238Pu (excretion, tissue retention, clinical observations), female and male arms
Type: in vivo, Swiss-Webster mice
Details: for tissue content of 238Pu compared to saline control group: all analyzed tissues, all dosing regimens; for % Recovered Dose - Feces per Day: group H
Protocol: The objective of this study was to characterize the efficacy of 3,4,3-L1(1,2-HOPO) at enhancing elimination from an internal plutonium burden in female and male Swiss-Webster mice administered a soluble citrate complex of ^238Pu and treated multiple times, starting at 24 hours after the exposure. Efficacy was evaluated by comparing the tissue contents, urinary and fecal excretions of ^238Pu in treated animals versus untreated animals.
The medical countermeasure 3,4,3-L1(1,2-HOPO) was administered parenterally (ip) or orally (po) via consecutive injections or gavages (six daily or twelve twice daily) starting at 24 hours post contamination at the following four selected doses: 30 μmol/kg ip, 150 μmol/kg po, 300 μmol/kg po, and 600 μmol/kg po (equivalent to respective approximate human doses range of […], using the accepted conversion system of mouse doses into human equivalent doses—HED—based on body surface area). Oral doses also included the permeability enhancer selected during formulation development work.
• Challenge isotope: ^238Pu • Challenge dose: 25 nCi (i.e., approximately 0.8 μCi/kg) • Route of contamination: Intravenous (iv) tail-vein • Route of treatment: Intraperitoneal Injection (ip) or Oral (po) • Frequency of treatment: Multiple (once- or twice-daily for 6 days) doses, starting 24 hr postcontamination • Treatment dose calculation: Dose calculations (mg/kg or μmol/kg) for the decorporation agent were based on the individual body weight measured after contamination. • Study Duration: 11 days, in-life
c. […] Test article and control dose formulations were prepared within 1 day of dose administration, by weighing out the appropriate amount of test article, dispersing in vehicle. For ip solutions, the test article was used alone, while for oral suspensions, a mixture of test article and excipient (90:10, w:w) was used. The pH was adjusted to 7.0-7.4 for ip administration and 5.0-5.5 for oral administration with sterile NaOH. Dose formulations were prepared at room temperature and filter-sterilized. • Storage: 2-8° C.; refrigerated; protected from light. • Characterization: The concentration of each test article formulation was verified by high-performance liquid chromatography-mass spectrometry. • Test Article Handling: Test, reference, and control article formulations were handled with the use of eye protection, gloves, and a protective laboratory coat. • Correct Dose Assurance: The test article was weighed with calibrated balances. The administration of each dose formulation was properly documented, and the amount administered to each animal recorded.
e. Experimental Procedures (In-Life Evaluations and Euthanasia) • Contamination: Single administration by intravenous (iv) tail-vein injection (0.2 mL injection volume) under isoflurane anesthesia. Three standard 0.2 mL injections were performed into polyethylene bottles and pre-loaded with aliquots of concentrated nitric acid on each injection day. Six female and six male mice were culled for necropsy 1 hr post-contamination and were used as standards. A11 standards were processed and counted together with the final samples to allow verification of the contamination dose. • Dose Administration: Single administration by intraperitoneal injection (ip) or oral gavage (po) under isoflurane anesthesia. • Mortality/Morbidity: Assessed at least once daily. • Clinical Observations: Recorded once daily (4 hr post-dose on day of treatment), or more often as clinical signs warranted. […]

[1] = female mice, 30 μmol/kg, IP, 11-day necropsy
[2] = female mice, 30 μmol/kg, IP, 11-day necropsy, over untreated control group
[3] = female mice, 30 μmol/kg, IP, 11-day necropsy, vs untreated control group
[4] = male animals, Day-11 necropsy, animal group H
[5] = male arm table, Day 11 necropsy, animal group H
[6] = male mice, 30 μmol/kg, IP, 11-day necropsy
[7] = male mice, 30 μmol/kg, IP, 11-day necropsy, over untreated control group
[8] = male mice, 30 μmol/kg, IP, 11-day necropsy, vs untreated control group

O=C(O)CN(CCN(CC(=O)O)CC(=O)O)CCN(CC(=O)O)CC(=O)O [DTPA, diethylenetriaminepentaacetic acid, reference compound]
238Pu excretion path (female and male mice): through urine
^238Pu excretion, Total Excretion, Avg [1]: 72.13 percent recovered dose
^238Pu excretion, Total Feces, Avg [1]: 30.20 percent recovered dose
^238Pu excretion, Total Urine, Avg [1]: 41.93 percent recovered dose
^238Pu retention, GI Tract, Avg [1]: 0.54 percent recovered dose
^238Pu retention, Kidney, Avg [1]: 0.13 percent recovered dose
^238Pu retention, Liver, Avg [1]: 4.14 percent recovered dose
^238Pu retention, Soft Tissue, Avg [1]: 1.66 percent recovered dose
^238Pu retention, Total Body, Avg [1]: 27.87 percent recovered dose
^238Pu retention, Total Bone, Avg [1]: 21.40 percent recovered dose
^238Pu percent increase in excretion, Total Excretion [2]: 143.34%
^238Pu percent increase in excretion, Total Feces [2]: 106.02%
^238Pu percent increase in excretion, Total Urine [2]: 192.03%
^238Pu percent tissue reduction, GI Tract [3]: 59.99%
^238Pu percent tissue reduction, Kidney [3]: 51.24%
^238Pu percent tissue reduction, Liver [3]: 65.62%
^238Pu percent tissue reduction, Soft Tissue [3]: 41.56%
^238Pu percent tissue reduction, Total Body [3]: 43.90%
^238Pu percent tissue reduction, Total Bone [3]: 35.51%
tissue content of 238Pu compared to saline control group (female): large reductions
% Recovered Dose Combined Body [4]: 31.58% and 24.29% and 33.79% and 30.93% and 32.00% and 29.03% and 23.14% and 27.41%
% Recovered Dose Combined Excreta [4]: 68.42% and 74.71% and 66.21% and 69.07% and 68.00% and 70.97% and 76.86% and 72.59%
% Recovered Dose GI Tract [4]: 1.75% and 0.46% and 0.91% and 0.70% and 0.71% and 0.57% and 0.52% and 0.47%
% Recovered Dose Kidney [4]: 0.14% and 0.28% and 0.20% and 0.21% and 0.11% and 0.15% and 0.17%
% Recovered Dose Liver [4]: 5.98% and 3.55% and 5.50% and 4.81% and 4.85% and 4.26% and 4.33% and 4.96%
% Recovered Dose Soft Tissue [4]: 2.40% and 1.47% and 2.34% and 2.95% and 2.10% and 1.91% and 1.81% and 1.44%
% Recovered Dose Total Bone [4]: 21.31% and 18.54% and 24.85% and 22.27% and 24.22% and 22.15% and 16.34% and 20.37%
% Recovered Dose Urine per Day, Day 2 [5]: 7.92% and 8.51% and 7.65% and 2.69% and 6.20% and 7.54% and 5.46% and 8.58%
% Recovered Dose Urine per Day, Day 3 [5]: 3.90% and 4.79% and 4.05% and 2.57% and 3.66% and 4.86% and 4.80% and 5.85%
% Recovered Dose Urine per Day, Day 4 [5]: 3.05% and 3.34% and 2.72% and 0.84% and 2.10% and 3.61% and 2.55% and 2.58%
% Recovered Dose Urine per Day, Day 5 [5]: 1.94% and 1.91% and 2.47% and 1.16% and 1.62% and 3.01% and 2.10% and 2.23%
% Recovered Dose Urine per Day, Day 6 [5]: 1.36% and 1.21% and 1.73% and 0.80% and 1.18% and 1.69% and 1.57% and 1.37%
% Recovered Dose Urine per Day, Day 7 [5]: 1.74% and 1.68% and 1.50% and 1.67% and 1.63% and 1.84% and 1.87% and 1.77%
% Recovered Dose Urine per Day, Day 8 [5]: 0.96% and 0.76% and 0.90% and 0.53% and 0.64% and 0.85% and 1.18% and 0.65%
% Recovered Dose Urine per Day, Day 9 [5]: 0.92% and 0.50% and 1.01% and 0.62% and 0.49% and 0.72% and 0.87% and 0.69%
% Recovered Dose Urine per Day, Day 10 [5]: 0.35% and 0.32% and 0.27% and 0.21% and 0.49% and 0.38%
% Recovered Dose Urine per Day, Day 11 [5]: 0.20% and 0.84% and 0.25% and 0.28% and 0.33% and 0.44% and 0.55% and 0.31%
% Recovered Dose - Feces per Day (male mice, feces day 2, Day 11 necropsy): 2.78% and 4.90% and 1.40% and 7.06% and 3.40% and 6.60% and 7.14% and 5.64%
% Recovered Dose - Feces per Day (male mice, feces day 3, Day 11 necropsy): 3.63% and 6.69% and 4.80% and 10.31% and 4.70% and 6.91% and 8.25% and 7.45%
% Recovered Dose - Feces per Day (male mice, feces day 4, Day 11 necropsy): 3.78% and 4.47% and 3.18% and 7.97% and 3.38% and 4.66% and 5.75% and 4.65%
% Recovered Dose - Feces per Day (male mice, feces day 5, Day 11 necropsy): 1.51% and 1.78% and 1.71% and 3.62% and 1.81% and 1.45% and 2.38% and 1.92%
% Recovered Dose - Feces per Day (male mice, feces day 6, Day 11 necropsy): 1.64% and 2.00% and 2.45% and 2.79% and 1.57% and 1.96% and 1.83% and 1.74%
% Recovered Dose - Feces per Day (male mice, feces day 7, Day 11 necropsy): 1.05% and 1.04% and 1.03% and 2.05% and 1.28% and 0.78% and 1.36% and 3.81%
% Recovered Dose - Feces per Day (male mice, feces day 8, Day 11 necropsy): 0.81% and 0.75% and 1.29% and 1.70% and 0.85% and 0.78% and 1.19% and 1.40%
% Recovered Dose - Feces per Day (male mice, feces day 9, Day 11 necropsy): 0.43% and 0.51% and 0.65% and 1.29% and 0.58% and 0.39% and 0.64% and 0.87%
% Recovered Dose - Feces per Day (male mice, feces day 10, Day 11 necropsy): 0.38% and 0.40% and 0.33% and 0.79% and 0.42% and 0.30% and 0.52% and 0.68%
% Recovered Dose - Feces per Day (male mice, feces day 11, Day 11 necropsy): 0.37% and 0.35% and 0.40% and 0.78% and 0.36% and 0.30% and 0.52% and 0.77%
^238Pu excretion, Total Excretion, Avg [6]: 70.98 percent recovered dose
^238Pu excretion, Total Feces, Avg [6]: 35.89 percent recovered dose
^238Pu excretion, Total Urine, Avg [6]: 35.09 percent recovered dose
^238Pu retention, GI Tract, Avg [6]: 0.76 percent recovered dose
^238Pu retention, Kidney, Avg [6]: 0.17 percent recovered dose
^238Pu retention, Liver, Avg [6]: 4.78 percent recovered dose
^238Pu retention, Soft Tissue, Avg [6]: 2.05 percent recovered dose
^238Pu retention, Total Body, Avg [6]: 29.02 percent recovered dose
^238Pu retention, Total Bone, Avg [6]: 21.26 percent recovered dose
238Pu percent increase in excretion, Total Excretion [7]: 149.50%
238Pu percent increase in excretion, Total Feces [7]: 140.57%
238Pu percent increase in excretion, Total Urine [7]: 159.88%
^238Pu percent tissue reduction, GI Trace [8]: 61.32%
^238Pu percent tissue reduction, Kidney [8]: 47.89%
^238Pu percent tissue reduction, Liver [8]: 71.51%
^238Pu percent tissue reduction, Soft Tissue [8]: 42.09%
^238Pu percent tissue reduction, Total Body [8]: 44.74%
^238Pu percent tissue reduction, Total Bone [8]: 28.92%
tissue content of 238Pu compared to saline control group (male): large reductions
